pEC50: −log10 of the molar value. Activity calls are given as the source filed them. The calls are words filed in the database; no cut-off is given here.
Columns and labels:
[1] = target: T1, 2-5A-dependent ribonuclease (Homo sapiens) (UniProt Q05823); experiment: (§1) Activation of human RNase L expressed in Escherichia coli BL21 (DE3) cells assessed as RNA cleavage using Cy5-rC11-UU-C7-BHQ2 as substrate by FRET assay
T1 sequence (whole entry): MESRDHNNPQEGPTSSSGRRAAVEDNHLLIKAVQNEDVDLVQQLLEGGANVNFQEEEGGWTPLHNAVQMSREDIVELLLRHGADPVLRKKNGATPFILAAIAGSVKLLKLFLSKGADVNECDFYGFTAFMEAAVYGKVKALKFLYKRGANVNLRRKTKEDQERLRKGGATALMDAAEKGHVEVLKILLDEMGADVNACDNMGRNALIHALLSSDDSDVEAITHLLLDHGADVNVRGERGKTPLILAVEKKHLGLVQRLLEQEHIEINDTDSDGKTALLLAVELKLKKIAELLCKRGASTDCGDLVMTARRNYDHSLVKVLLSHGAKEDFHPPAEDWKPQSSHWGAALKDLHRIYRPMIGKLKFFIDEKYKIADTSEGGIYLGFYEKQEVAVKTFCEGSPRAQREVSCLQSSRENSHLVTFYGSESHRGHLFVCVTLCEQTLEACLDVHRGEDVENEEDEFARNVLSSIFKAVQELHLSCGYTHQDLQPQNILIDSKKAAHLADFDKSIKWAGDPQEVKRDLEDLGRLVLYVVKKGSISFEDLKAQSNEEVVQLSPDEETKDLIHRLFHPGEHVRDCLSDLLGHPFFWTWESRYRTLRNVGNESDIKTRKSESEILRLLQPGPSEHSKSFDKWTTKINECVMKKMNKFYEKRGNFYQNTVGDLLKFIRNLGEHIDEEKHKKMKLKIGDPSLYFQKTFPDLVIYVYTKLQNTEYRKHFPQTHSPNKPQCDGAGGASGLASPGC

[2] = target: T2, 2-5A-dependent ribonuclease (Homo sapiens, UniProt Q05823); experiment: as §1
T2 sequence (Q05823 whole entry): T1 sequence (whole entry)

SMILES | Activity [1] | pEC50 [2]
Nc1ncnc2c1ncn2[C@@H]1O[C@H](COP(=O)(O)CO[C@H]2[C@H](O)[C@@H](COP(=O)(O)O[C@@H]3[C@H](O)[C@@H](COP(=O)(O)O[C@@H]4[C@H](O)[C@@H](COP(=O)(O)O)O[C@H]4n4cnc5c(N)ncnc54)O[C@H]3n3cnc4c(N)ncnc43)O[C@H]2n2cnc3c(N)ncnc32)[C@@H](O)[C@H]1O | Active | 6.00
Nc1ncnc2c1ncn2[C@@H]1O[C@H](COP(=O)(O)O[C@@H]2[C@H](O)[C@@H](COP(=O)(O)O[C@@H]3[C@H](O)[C@@H](COCP(=O)(O)O[C@@H]4[C@H](O)[C@@H](COP(=O)(O)O)O[C@H]4n4cnc5c(N)ncnc54)O[C@H]3n3cnc4c(N)ncnc43)O[C@H]2n2cnc3c(N)ncnc32)[C@@H](O)[C@H]1O | inactive | < 6.00
Nc1ncnc2c1ncn2[C@@H]1O[C@H](COP(=O)(O)O[C@@H]2[C@H](O)[C@@H](COCP(=O)(O)O[C@@H]3[C@H](O)[C@@H](COP(=O)(O)O[C@@H]4[C@H](O)[C@@H](COP(=O)(O)O)O[C@H]4n4cnc5c(N)ncnc54)O[C@H]3n3cnc4c(N)ncnc43)O[C@H]2n2cnc3c(N)ncnc32)[C@@H](O)[C@H]1O | inactive | 6.52

More lines, now with the values ahead:

Activity [1] | pEC50 [2] | SMILES
Active | 8.38 | Nc1ncnc2c1ncn2[C@@H]1O[C@H](COCP(=O)(O)O[C@@H]2[C@H](O)[C@@H](COP(=O)(O)O[C@@H]3[C@H](O)[C@@H](COP(=O)(O)O[C@@H]4[C@H](O)[C@@H](COP(=O)(O)O)O[C@H]4n4cnc5c(N)ncnc54)O[C@H]3n3cnc4c(N)ncnc43)O[C@H]2n2cnc3c(N)ncnc32)[C@H](O)[C@H]1O
Active | 8.19 | Nc1ncnc2c1ncn2[C@@H]1O[C@H](COCP(=O)(O)O[C@@H]2[C@H](O)[C@@H](COP(=O)(O)O[C@@H]3[C@H](O)[C@@H](COP(=O)(O)O[C@@H]4[C@H](O)[C@@H](COP(=O)(O)O)O[C@H]4n4cnc5c(N)ncnc54)O[C@H]3n3cnc4c(N)ncnc43)O[C@H]2n2cnc3c(N)ncnc32)[C@@H](O)[C@@H]1O
Active | 6.52 | Nc1ncnc2c1ncn2[C@@H]1O[C@H](COP(=O)(O)O[C@@H]2[C@H](O)[C@@H](COP(=O)(O)O[C@@H]3[C@H](O)[C@@H](COP(=O)(O)O[C@@H]4[C@@H](O)[C@@H](COCP(=O)(O)O)O[C@H]4n4cnc5c(N)ncnc54)O[C@H]3n3cnc4c(N)ncnc43)O[C@H]2n2cnc3c(N)ncnc32)[C@@H](O)[C@H]1O

From ChEMBL document CHEMBL2057064, “Activation of human RNase L by 2'- and 5'-O-methylphosphonate-modified oligoadenylates” (Bioorg Med Chem Lett, 2012)
